# Patent publication US20150141375A1 (priority 2009, published 2015)
# Read-outs that look alike come from different tables or passages of the source.
# What was measured:
# [1] = Oral toxicology studies, nephrotoxicity; assay type: in vivo, mice, rats, rabbits and monkeys
# Text: In addition, over twenty-one toxicology studies have been conducted in mice, rats, rabbits and monkeys with CMX001 being delivered by the oral route.
# [2] = SVG cell viability / cell number (MTS, alamar blue, hematoxylin); assay type: cell-based, human; conditions: human; for cytotoxicity at 1 μM: read-out: reduction in viability (MTS)
# Procedure: (§1) Quantification of cell viability using the MTS [3-(4,5-dimethylthiazol-2-yl)-5-(3-carboxymethoxyphenyl)-2-(4-sulfophenyl)-2H-tetrazolium] assay is based on bioactivity of mitochondrial dehydrogenase in living cells, which converts colorless tetrazolium salt to a colored formazan. MTS assays were performed according to manufacturer's instructions (Promega, Madison Wis.). Briefly, culture medium was removed from cells and 50 μL of PBS was added into each well of a 96 well plate. Ten μL of MTS reagent were added to wells of cells, and to a well without cells to determine background. Mixtures were incubated at 37° C. for 2 hours and the absorbance was measured at 490 nm. Trypan blue staining was performed on identical cultures to correlate MTS values with cell viability. The final values indicated are the result from 3 replicates. The value for the non-treated control was set to 100% and all other values are represented as a percentage of the control. Alamar blue (AB) assay.
# (§2) Quantification of cell viability using the alamar blue (AB) assay was performed according to the manufacturer's instructions (Invitrogen, Gaithersburg, Md.). Briefly, 10 μL of AB reagent was added to each well of a 96 well dish containing cells or without cells to determine background. Mixtures were incubated at 37° C. for 6 hours and the absorbance measured at 570 nm using 600 nm as a reference wavelength. The value for the non-treated control was set to 100% and all other values are represented as a percentage of the control.
# (§3) Because cell density in cultures processed for in situ DNA hybridization could not be measured by MTS or AB assays, cell density was approximated in cell cultures processed by quantifying hematoxylin staining intensity. Coverslips containing cells were prepared for in situ DNA hybridization and co-stained with hematoxylin. Subsequently, each coverslip was scanned and the hematoxylin intensities quantified using ImageJ. To determine the total cell number per coverslip, images were acquired at 10 random positions at 100× magnification. Cells were counted throughout each image and the average cell number per slide was generated by averaging counts from the 10 images for each experimental group. Exactly 900 images at 100× magnification cover the surface of an 18 mm×18 mm coverslip.
# SVG cells = assay: as above; assay type: cell-based, human
# Procedure: as §1, §2, §3
compound,measurement,setting,value
"CCCCCCCCCCCCCCCCOCCCOP(=O)(O)CO[C@H](CO)Cn1ccc(N)nc1=O [CMX001, Hexadecyloxypropyl-cidofovir]",indication of nephrotoxicity,"[1]; over twenty-one toxicology studies, oral route",In none of these studies
same,evidence of nephrotoxicity,"[1]; single and repeated dosing in animals and human volunteers, 0.1 mg/kg to 4.0 mg/kg",no evidence of nephrotoxicity
same,cytotoxicity at 1 μM,"[2]; JCV-infected SVG cells (established infection), 1 μM, JCV-infected cells, established infection",40%
same,"cytotoxicity at 4 days, 0.01 μM","[2]; SVG cells, 0.01 μM, 4 days, read-out: reduction in cell viability (alamar blue)",6%
same,"cytotoxicity at 4 days, 0.1 μM","[2]; SVG cells, 0.1 μM, 4 days, read-out: reduction in cell viability (alamar blue)",11%
same,"cytotoxicity at 4 days, 1 μM","[2]; SVG cells, 1 μM, 4 days, read-out: reduction in cell viability (alamar blue)",32%
same,cytotoxicity at 1 μM,"[2]; non-infected SVG cells, 1 μM, non-infected cells",15%
same,reduction in total cell number (hematoxylin),SVG cells; 0.01 μM,did not result in significant reduction
same,reduction in total cell number (hematoxylin),SVG cells; 0.03 μM,14%
same,reduction in total cell number (hematoxylin),SVG cells; 0.07 μM,39%
same,reduction in total cell number (hematoxylin),SVG cells; 0.1 μM,46%
same,cell viability (MTS),"SVG cells; 0.01 or 0.1 μM, non-infected or JCV-infected (established infection) SVG cells",did not alter cell viability
same,concentrations at which cytotoxicity was observed,SVG cells; SVG cells,≥ 1000 nM
